According to US10646521B2, “Microbiota composition, as a marker of responsiveness to chemotherapy, and use of microbial modulators (pre-, pro- or synbiotics) for improving the efficacy of a cancer treatment” (INSTITUT GUSTAVE ROUSSY, priority 2013, dated 2020):
Where “and” joins values, the source holds several entries; their conditions need not be identical. Equal entries are not always repeated.

Key:
commensal bacteria = format: in vivo, mice
Experimental: Mesenteric lymph nodes and spleens were aseptically removed, smashed in PBS and plated onto COS agar plates (BioMérieux), for aerobic and anaerobic growth. After 48 h of culture, single colonies were isolated and stocked in glycerol at −80° C.
Serial dilutions of feces from naïve mice or tumor bearers treated with NaCl or CTX, vancomycin or broad spectrum antibiotics (ATB) (ampicillin+streptomycin+colistin), were plated onto COS agar plates and after 48 h, single colonies were isolated and Gram staining was performed. The identification of specific bacteria was accomplished through the combination of morphological tests and the analysis through VITEK® automated system (BioMérieux, France) and verified in mass spectrometry (MALDI-TOF, see below) performed at Pasteur Institute, Paris, France.

[1] = system: small intestine mucosal microbiota; conditions: mouse, in vivo
[2] = system: CBir1 TCR Tg CD4+ T cells; conditions: mouse, in vivo
Experimental: CD4^+ T cells were isolated from B6.CBir1 TCR Tg mice using anti-mouse CD4 magnetic beads. Briefly, splenic cells were washed twice and incubated with anti-CD4 magnetic beads at 4° C. for 30 min and then separated by magnetic field. When checked by flow cytometry, over 95% of the cells were CD4^+ T cells. One million CBir1 Tg T cells (CD45.1^+) were adoptively transferred i.v. into CTX or NaCl treated-naïve congenic (CD45.2^+) mice two days after chemotherapy and spleens were harvested at day 5-7 post-transfer for flow cytometry analyses and ex vivo splenocyte restimulations. Flow cytometry analyses gated on CD45.1^+ cells to appreciate percentages of intracellular IL-17^+ or IFNg^+ cells after PMA/ionomycin 5 h restimulation in the presence of monensin.

splenic pTh17 cells = test: Flow cytometry of splenic pTh17 / TH1 / Tc1 cells
Experimental: For cross-linking experiment, 2×10^5 total splenocytes per well (after red cell lysis) were incubated in MaxiSorp plates (Nunc) precoated with anti-CD3ε mAb (145-2C11) (0.5 μg per well; eBioscience) and/or anti-CD28 mAb (37.51) (2 μg/ml; BD). The supernatants were assayed at 48 h by ELISA for mouse IL-17A (eBioscience) and IFNγ (BD). […] For intracellular, cells were incubated for 4 h at 37° C. with 50 ng/ml of PMA, 1 μg/ml of ionomycin and BD Golgi STOP™. After membrane staining, cells were stained with anti-IL-17A, IFNγ, T-bet and RORγt using eBioscience FoxP3/Transcription factor staining buffer set.

splenocytes = test: TCR cross-linking of splenocytes, IL-17 and IFNγ ELISA; format: in vivo, mice
[3] = system: Lysozyme M and RegIIIγ transcription; conditions: duodenum, 18 hours post-CTX
Experimental: Lamina propria cells were isolated from duodenum, ileum and colon 18 h post CTX, and total RNA extraction and genomic DNA removal were performed with the RNeasy Mini Kit (Qiagen, Hilden, Germany), following the manufacturer's instructions. Total RNA extraction and genomic DNA removal of ilea or duodena were performed with the RNeasy Mini Kit (Qiagen, Hilden, Germany), following the manufacturer's instructions. Total RNA was then reverse transcribed into cDNA with the SuperScript III Reverse Transcriptase and the RNaseOUT™ Recombinant Ribonuclease Inhibitor (Life Technologies, Saint Aubin, France), in the presence of random primers (Promega, Charbonnieres, France) and the Deoxynucleoside Triphosphate Set, PCR grade (Roche Diagnostics, Meylan, France). Expression of RegIIIγ (Mm00441127_m1) and LysM (Mm01612741_m1)-related genes was analyzed with TaqMan® Gene Expression Assays using the Universal Master Mix II on a StepOnePlus™ Real-Time PCR System (Life Technologies, France). Quantitative RT-PCR data were invariably normalized to the expression levels of the housekeeping gene peptidylprolyl isomerase A (Ppia) by means of the 2^−ΔCt method.

[4] = system: lamina propria cells of the small intestine; conditions: 7 days post-CTX
[5] = system: bacterial groups associated with small intestine mucosa
[6] = system: small intestine epithelium; conditions: mouse, in vivo
Experimental: The whole small intestine (duodenum, jejunum and ileum) was removed, cleaned from fecal content and fixed in 4% of PFA for 1 h. Re-hydration of the tissue was performed in 15% sucrose for 1 h and in 30% sucrose overnight. Depending on the experiment, the small intestine was entirely rolled, or cut into small pieces, then embedded in optimum cutting temperature (OCT) compound (Sakura), snap frozen and longitudinal or transversal […] were prepared.
For histological analyses, the longitudinal sections were counterstained with hematoxilin and eosin. For the histological quantitative analyses, inflammatory foci, altered villi and the thickness of lamina propria were scored for each section, while the number of goblet cells was counted for each villus. […] Then, a rabbit polyclonal antibody against the lysozyme protein (1:500 for 1 h, Thermo Scientific) and ALEXA FLUOR 488 Fragment of goat anti-rabbit IgG (1:300 for 1 h, Molecular Probes) were used. All steps were performed at room temperature. Lysozyme-positive areas were quantified on mosaic images using the Histolab software (Microvision Instruments). The quantification of Paneth cells was performed measuring the average area of the Lysozyme-positive clusters (group of Paneth cells) as well as the emission/μm^2 of those clusters (not shown).

MCA205 sarcomas = format: in vivo, C57BL/6 mice; conditions: mouse, in vivo
memory CD4+ T cells = conditions: 11 patients, after metronomic CTX
Experimental: Ex vivo restimulation assays using patients' autologous monocytes loaded with defined bacteria for 3 hours, neutralized with antibiotics, then cultured in GM-CSF+IL-4 (to differentiate into DC) and incubated for 3 days with CD4^+CD45RO^+ T cells (at a 1:2 ratio) purified from autologous blood at various time points (Day 0: before CTX, Day 12-46: after CTX, NSCLC: non small cell lung cancer). A. Cytokine release (IFNγ, TNF, IL-10) was monitored using ELISA. […] C. […] B-D show the cytokine levels in the 40 h supernatants of 250.000 memory CD4^+ T cells for each individual patient pre- and post-CTX administration.
The responses that were monitored included those against enterococci (E. hirae and E. faecalis, both immunogenic in mice receiving CTX), lactobacilli (L. johnsonii and the less relevant L. plantarum), as well as against E. coli.

gut microbiota [7] = conditions: NOD1-/-xNOD2-/- naive mice, CTX compared with PBS, seven days
splenic CD4+ T cells = conditions: mouse, in vivo
[8] = 18 h post CTX
Experimental: Gut barrier integrity was assessed by permeability to FITC-dextran (4 kDa, Sigma Aldrich). Fourteen hours after i.p. injection with NaCl or CTX at 100 or 200 mg/kg, mice were fasted for 4 hours and then orally fed with FITC-dextran at 0.6 mg/g body weight (80 mg/ml in NaCl, 18 h after NaCl/CTX treatment). After 3 to 4 h, the mice were euthanized and exsanguinated by cardiac puncture. Plasma FITC levels were subsequently determined using a fluorescence spectrophotometer (λex/λem=485/535 nm).

tumor = test: Effects of ATB regimen on the efficacy of CTX (tumor outgrowth); format: in vivo, mice; conditions: ATB regimen 15 days prior to tumor inoculation
Experimental: Distinct ATB regimen (Zhang Y et al. Toxicology and Applied Pharmacology 277 (2014) 138-145) were administered for 15 days prior to tumor inoculation and CTX therapy every other 13 days. Tumor outgrowth was monitored with a caliper twice a week. […] Each experiment contains several groups of 5 mice. *Anova test: p<0.05.

gut microbiota [9] = conditions: Zhang Y et al., 2014; cited from earlier work

SMILES: O=P1(N(CCCl)CCCl)NCCCO1 (centres unmarked) [CTX, cyclophosphamide]
- Lactobacillus johnsonii cultured from lymphoid organs (commensal bacteria; 48 h post therapy): > 40 % cases
- mice with translocation of commensal bacteria into mesenteric lymph nodes and spleens (commensal bacteria; 48 h post-CTX): > 50 % mice
- bacterial translocation (colonies from spleens, anaerobic conditions) in NOD1xNOD2-/- (commensal bacteria; 48 hrs post-CTX): enhanced
- bacterial species/groups from the Firmicutes phylum in mucosa [1]: reduction
- dysbiosis at early time points [1]: failed to cause a major dysbiosis
- microbial composition of small intestine and caecum [1]: significantly altered the microbial composition of the small intestine (but not of the caecum)
- proportion of Spirochaetes phylum [1]: reduction
- relative abundance of the Treponema genus [1]: 0%
- relative abundance: Butyrate-producing bacterium M62/1 (AY305309) [1]: 0.07% and 0.06%
- relative abundance: Butyrate-producing bacterium SM4/1 (AY305314) [1]: 0.21% and 0.20%
- relative abundance: Clostridium sp ASF502 (AF157053) [1]: 0.01% and 0.00%
- relative abundance: Clostridium sp. A9 (DQ789119) [1]: 0.23% and 0.27%
- relative abundance: Clostridium sp. Clone-33 (AB622843) [1]: 0.02% and 0.00%
- relative abundance: Clostridium sp. Clone-40 (AB622844) [1]: 0.05% and 0.02%
- relative abundance: Clostridium sp. Clone-49 (AB622849) [1]: 0.07% and 0.09%
- relative abundance: Clostridium sp. Culture-41 (AB622820) [1]: 0.10% and 0.08%
- relative abundance: Clostridium sp. Culture-54 (AB622823) [1]: 0.03% and 0.04%
- relative abundance: Coprococcus catus; L8 (AB361624) [1]: 0.03%
- relative abundance: Lachnospiraceae bacterium 14-2 (DQ789124) [1]: 0.05% and 0.02%
- relative abundance: Lactobacillus reuteri; LU3 (AY735406) [1]: 0.24% and 0.14%
- relative abundance: Roseburia faecis (T); M7211 (AY305310) [1]: 0.35% and 0.41%
- relative abundance: Roseburia intestinalis; XB6B4 (AM055815) [1]: 0.02% and 0.00%
- relative abundance: Rumen bacterium NK4A66 (GU124467) [1]: 0.07% and 0.10%
- relative abundance: Tannerella forsythia; OB071 (JN713185) [1]: 0.02%
- immune responses against commensal bacteria (CBir1 Tg T cells) [2]: induced TCR-restricted, antigen specific immune responses against commensal bacteria
- frequency of pathogenic Th17 (pTh17) cells within the spleen (splenic pTh17 cells; 7 days after treatment): increased
- priming of splenic pTH17 cells in NOD2-/- mice (splenic pTh17 cells; following CTX administration): augmented
- polarization of splenic CD4+ T cells towards Th1 and Th17 pattern (splenocytes; day 7 after treatment): induced the polarization
- increase of ex vivo IL-17 release by TCR-stimulated splenocytes (splenocytes; germ-free (GF) mice): failed to do so
- ex vivo IL-17 release by TCR-stimulated splenocytes (splenocytes; specific pathogen-free (SPF) mice): increased
- expression of the antibacterial enzyme lysozyme [3]: upregulated
- frequencies of CD103+CD11b+ dendritic cells in lamina propria of the small intestine [4]: significantly decreased
- frequencies of TCRαβ+CD3+ T cells expressing RORγt in lamina propria of the small intestine [4]: significantly decreased
- relative amounts of SFB and TM7 or Clostridium group XIV ([5]; day 7 post-CTX (not shown)): No CTX-specific modulations
- abundance of lactobacilli and enterococci ([5]; small intestine mucosa, 7 days post-CTX): reduction
- bacterial counts of the Clostridium leptum ([5]; tumor bearers, 7 days post-CTX): not affected
- total bacterial load of the small intestine ([5]; tumor bearers, 7 days post-CTX): not affected
- inflammatory status of the gut epithelial barrier (histology) [6]: shortening of small intestinal villi, discontinuities of the epithelial barrier, interstitial edema and focal accumulation of mononuclear cells in the lamina propria
- antitumor effects against MCA205 sarcomas, GF versus SPF mice (MCA205 sarcomas): reduced in GF compared with SPF mice
- immune-dependent anti-sarcoma effects in NOD1-/-xNOD2-/- mice (MCA205 sarcomas): significantly enhanced
- immune-dependent anti-sarcoma effects in single knock out mice (NOD1 or NOD2 or RIP2 or CARD15) compared with WT (MCA205 sarcomas): not ameliorated
- patients developing memory Th1 responses against E. coli (memory CD4+ T cells): 18%
- patients developing memory Th1 responses against L. johnsonii (memory CD4+ T cells): 18%
- patients developing memory Th1 responses against enterococci (memory CD4+ T cells): 54%
- patients mounting a cellular immune response against L. plantarum (memory CD4+ T cells): 9%
- Clostridiaceae in the small intestines (gut microbiota [7]): overrepresentation
- Erysipelotrichaceae in SI (gut microbiota [7]): relative loss
- Lachnospiraceae in feces (gut microbiota [7]): relative loss
- Porphyromonadaceae (mainly Barnesiella) in the stool (gut microbiota [7]): overrepresentation
- mice with Th1 memory responses against L. johnsonii (splenic CD4+ T cells): 50 % of mice
- intestinal permeability (orally administered FITC-dextran detectable in blood) [8]: increase

SMILES: O=C(O)c1cn(C2CC2)c2cc(N3CCNCC3)c(F)cc2c1=O [cifloxacin]
- effect on the CTX-induced antitumor effects (tumor): not efficient
- Bacteroidetes in gut microbiota (gut microbiota [9]): marked suppression
